{"source": "patent US11690847B2", "about": "“Combinations of 15-PGDH inhibitors with corticosteroids and/or TNF inhibitors and uses thereof” (CASE WESTERN RESERVE UNIVERSITY, priority 2016, dated 2023)", "key": {"[1]": {"tested_on": "DSS induced colitis", "test": "DSS colitis treatment study: (+) SW033291, dexamethasone or combination from day 8", "assay_type": "in vivo, mice", "details": "(+) SW033291 5 mpk IP twice daily, dexamethasone 0.06 mpk IP daily"}, "[2]": {"tested_on": "DSS induced colitis", "test": "dextran sodium sulfate (DSS) induced colitis, 2% DSS days 1-7, SW033291 versus vehicle", "assay_type": "in vivo, FVB male mice", "procedure": "In the study, 8-12 week old FVB male mice were fed with 2% DSS in drinking water for days 1-7, and then switched to normal drinking water beginning on day 8, and continued through day 22. […] Clinical scoring (body weight, rectal bleeding, stool consistency) was recorded daily, endoscopic scoring (ulcer number, mucosal thickening, and vascular pattern) was assessed on days 8, 11, 15. Mice were sacrificed on days 1, 8, 15 and 22 for assessment of colon length, colon weight, ulcer number, ulcer area, and crypt damage.\nThe Disease Activity Index is calculated as an equally weighted average of the change from baseline weight, the consistency of stool, and the presence of rectal bleeding, with each component normalized to span an identical numerical range.\nIn addition to the gross visual inspection and scoring of colitis activity by the MEICS index, full length colons of mice were formalin fixed and paraffin embedded, and microscopic scoring of crypt damage was performed using the 0-4 severity scale of Cooper H S. Et al., Lab Invest. 1993; 69:238-249. For this analysis, the colons were divided into 3 segments of proximal, middle, and distal colon, each approximately 1.6 cm in length, with each segment was further subdivided into 4 sections each approximately 4 mm in length. For each section the crypt damage severity score was multiplied by the length in mm of the damaged area, creating a 0-16 cryptitis severity index. An average cryptitis severity index was calculated for each segment (proximal, middle, and distal colon), and the summed whole colon cryptitis severity index was determined on a scale of 0-48 for each mouse colon.\nMice were injected with BrdU at 100 mg/kg IP 3 hours before sacrifice and then full length colons were formalin fixed and embedded in paraffin. S-phase cells, that have incorporated BrdU into DNA, were visualized by immuno-fluorescent staining of 5 μm thick sections with an antibody that detects the BrdU. Colonic crypts were visualized by immuno-fluorescent staining with an antibody to the epithelial marker E-Cadherin. […] Red immune-fluorescence identifies BrdU positive nuclei, and green immune-fluorescence identifies E-Cadherin positive colonocytes. The number of BrdU positive cell per crypt is determined by counting the number of dual labeled red and green cells per average crypt. Green only cells that are not in S-phase are not counted, and red only cells, that are likely stromal cells outside of crypts, are also not counted. […] The graph depicts the sum of the average number of BrdU positive cells per crypt in the distal colon plus the average number of BrdU positive cells per crypt middle colons of control (Cn), […] treated (Tx), and 15-PGDH knockout mice (KO) on day 1, day 8, and day 15 of the DSS treatment protocol."}, "[3]": {"test": "stability on incubation with rat liver extracts", "assay_type": "in vitro ADME"}, "[4]": {"test": "stability on incubation with human liver extracts", "assay_type": "in vitro ADME"}, "[5]": {"test": "stability on incubation with mouse liver extracts", "assay_type": "in vitro ADME"}, "[6]": {"test": "stability on incubation with hepatocyte cell lines", "assay_type": "in vitro ADME"}, "[7]": {"test": "stability on incubation with hepatocyte extracts", "assay_type": "in vitro ADME"}}, "data": [{"smiles": "C[C@@H]1C[C@H]2[C@@H]3CCC4=CC(=O)C=C[C@]4(C)[C@@]3(F)[C@@H](O)C[C@]2(C)[C@@]1(O)C(=O)CO", "note": "[dexamethasone, reference compound]", "values": [{"measurement": "percent decrease in total DAI (relative disease reduction)", "setting": "[1]; area under the DAI curve, FIG. 17B", "result": 15, "unit": "%"}]}, {"smiles": "CCCC[S+]([O-])c1sc2nc(-c3cccs3)cc(-c3ccccc3)c2c1N", "note": "(centres unmarked) [SW033291]", "values": [{"measurement": "average change from baseline weight versus control", "setting": "[2]; 5 mg/kg IP twice daily, 22 days, FIG. 1", "result": "greater weight at all time points"}, {"measurement": "weight gain after washout of DSS versus control", "setting": "[2]; 5 mg/kg IP twice daily, P=0.001, FIG. 1", "result": "faster weight gain"}, {"measurement": "Wt @sacrifice", "setting": "[2]; Baseline", "result": "25.9 ± 0.7", "unit": "gm"}, {"measurement": "Wt @sacrifice", "setting": "[2]; Day 8", "result": "26.4 ± 0.5", "unit": "gm"}, {"measurement": "Wt @sacrifice", "setting": "[2]; Day 15", "result": "25.2 ± 0.9", "unit": "gm"}, {"measurement": "Wt @sacrifice", "setting": "[2]; Day 22", "result": "28.2 ± 0.5", "unit": "gm"}, {"measurement": "body weight versus vehicle control (in words)", "setting": "[2]; day 22", "result": "greater body weight"}, {"measurement": "colon length versus vehicle control (in words)", "setting": "[2]; day 22", "result": "greater colon lengths"}, {"measurement": "ulcer formation prevented (colonoscopy)", "setting": "[2]; days 8, 11, 15, versus control, FIG. 4A", "result": "two-thirds"}, {"measurement": "MEICS score versus vehicle", "setting": "[2]; days 8, 11 and 15, FIG. 7", "result": "significantly less colitis activity"}]}, {"smiles": "CCCC[S+]([O-])c1sc2nc(-c3nccs3)cc(-c3cnc(C)n3C)c2c1N", "note": "(centres unmarked) [formula (X)]", "values": [{"measurement": "chemical stability when incubated with liver extracts", "setting": "[3]", "result": "chemically stable"}, {"measurement": "chemical stability when incubated with liver extracts", "setting": "[4]", "result": "chemically stable"}, {"measurement": "chemical stability when incubated with liver extracts", "setting": "[5]", "result": "chemically stable"}]}, {"smiles": "CCCC[S+]([O-])c1sc2nc(-c3cccs3)cc(-c3ccccc3)c2c1N", "note": "(single isomer, unassigned; (+)) [(+) SW033291]", "values": [{"measurement": "daily weights (weight loss)", "setting": "[1]; days 1-17, from day 8, FIG. 15", "result": "some amelioration of weight loss"}]}, {"smiles": "CCCC[S+]([O-])c1sc2nc(-c3cccs3)cc(-c3ccccc3)c2c1N", "note": "(centres unmarked) [formula (IX)]", "values": [{"measurement": "chemical stability when incubated with hepatocyte cell lines", "setting": "[6]", "result": "chemically stable"}, {"measurement": "chemical stability when incubated with hepatocyte extracts", "setting": "[7]", "result": "chemically stable"}]}]}
